Results on two compounds are retold here after patent US4692433A, “Method and composition for regulating serum calcium levels of mammals” (The Regents of the University of California, priority 1985, dated 1987).

Experiment [1] deals with fasted normal rats. Nature of the experiment: Serum calcium change after oral administration of salmon calcitonin preparations. The class given is in vivo, rat. The procedure:
(§1) The polypeptide hormone is incorporated into the liposome as follows: the phospholipid components are dissolved in an organic solvent such as chloroform. The solvent is then removed to produce a lipid film. A buffer solution containing the polypeptide hormone is then added and mixed to form a suspension of the phospholipid film and polypeptide hormone. The suspension is then sonicated to form the liposome-entrapped polypeptide hormone. The suspension is then centrifuged at 120,000 times g for 16 hours to obtain a pellet consisting of liposome-entrapped hormone while the supernatant contains the unentrapped hormone. The liposomes in the pellet are then taken up in a small amount of buffer and subsequently used to influence calcium homestasis by oral administration.
Purified salmon and human calcitonin or human parathyroid hormone (1-34 amino acid fragment) were incorporated into liposomes consisting of natural or synthetic phospholipids and positively-charged amine-containingamphiphile. Liposomes containing the entrapped hormones were isolated by centrifugation, resuspended in buffer and administered by stomach tube to fasted normal rats (calcitonin) or fasted parathyroidectomized rats (parathyroid hormone). The serum calcium was determined at various time intervals in treated and untreated animals to assess the effect of the respective preparations. […]

Experiment [2] concerns fasted parathyroidectomized rats. Nature of the experiment: Serum calcium change after oral administration of PTH preparations by stomach tube. The class given is in vivo, rat. As to the method: as §1
Purified salmon and human calcitonin or human parathyroid hormone (1-34 amino acid fragment) were incorporated into liposomes consisting of natural or synthetic phospholipids and positively-charged amine-containingamphiphile. Liposomes containing the entrapped hormones were isolated by centrifugation, resuspended in buffer and administered by stomach tube to fasted normal rats (calcitonin) or fasted parathyroidectomized rats (parathyroid hormone). The serum calcium was determined at various time intervals in treated and untreated animals to assess the effect of the respective preparations.
450 micromoles of egg phosphatidylcholine (ePC) and 50 micromoles of stearylamine (SA) were dissolved in 2 to 3 ml of anhydrous chloroform placed in a 30 ml glass stopper tube and the solvent was removed in vacuo. To the thin film of lipid remaining on the wall of the tube was added 5.0 ml of buffer (20 mM NaCl containing 5 mM Tris, pH 7.4) containing 1 mg human PTH (hPTH 1-34) and 1×10^6 CPM of I^125 -human PTH tracer (hPTH 1-34). The buffer was mixed at room temperature for 5 minutes using a vortex mixer.
After vortexing the mixture was sonicated for 3 minutes at room temperature using the cuphorn of a Heat Systems Ultrasonics sonicator at maximal output. […]

Consider `CC(=O)Oc1ccccc1C(=O)O` [aspirin], for which, in experiment [1], the “enhancement of the calcitonin effect on serum calcium by additive (in words)” value is listed as “enhances slightly the effect of free CT”.
Take “Free PTH: free human parathyroid hormone, 1-34 amino acid fragment, given orally (SVSEIQLMHNLGKHLNSMERVEWLRKKLQDVHNF; Parathyroid hormone; UniProt P01270 32-65, looked up, fragment)”: the “Change in serum Ca2+” value was “+0.08 0.25 mg/dl” in experiment [2] (Table 2: oral, 40 μg, after 2 hr, triplicate, mean ± Std. error of mean) and -0.05 mg/dL in experiment [2] (Table 3: 2 hours after oral administration to rats, 40 μg PTH, values marked (3) are triplicate mean ± Std. error of mean). Moreover, the “effect on serum calcium (in words)” value in experiment [2] (oral administration to rats, equivalent dose) is on record as “no effect”.
